Activity calls are given as the source filed them. No rule for the calls is given here.
System: rodent lifetime carcinogenesis bioassay, tumor incidence TD50
Assay: carcinogenic potency in animals, long-term in vivo studies, CPDB compilation (AID 1745844)
Settings: for carcinogen call: by gavage; for TD50: in feed, dosed 103 weeks

N=C1C=CC(=C(c2ccc(N)cc2)c2ccc(N)cc2)C=C1
carcinogen call (hamster, strain Syrian Golden, females, site: any site (literature study), lesion: several types, types named in the paper, dosed 84 weeks, study length 84 weeks): negative (inactive) | carcinogen call (hamster, strain Syrian Golden, males, site: any site (literature study), lesion: several types, types named in the paper, dosed 84 weeks, study length 84 weeks): negative (inactive) | TD50 (mouse, strain B6C3F1, females, site: Harderian gland, lesion: adenoma, NOS + carcinoma, NOS + cystadenoma, NOS, study length 105 weeks): 388 mg/kg/day | TD50 (mouse, strain B6C3F1, females, site: Harderian gland, lesion: adenoma, NOS + cystadenoma, NOS, study length 105 weeks): 316 mg/kg/day | TD50 (mouse, strain B6C3F1, females, site: Harderian gland, lesion: adenoma, study length 105 weeks): 548 mg/kg/day | TD50 (mouse, strain B6C3F1, females, site: adrenal gland + liver, lesion: pheochromocytoma + pheochromocytoma, malignant + hepatocellular carcinoma, study length 105 weeks): 28.8 mg/kg/day | TD50 (mouse, strain B6C3F1, females, site: adrenal gland, lesion: pheochromocytoma + pheochromocytoma, malignant, study length 105 weeks): 90.6 mg/kg/day | TD50 (mouse, strain B6C3F1, females, site: all sites, lesion: malignant lymphoma, histiocytic type + malignant lymphoma, mixed type + malignant lymphoma, lymphocytic type + malignant lymph, study length 105 weeks): 62.2 mg/kg/day | TD50 (mouse, strain B6C3F1, females, site: all sites, lesion: malignant lymphoma, histiocytic type, study length 105 weeks): 380 mg/kg/day | TD50 (mouse, strain B6C3F1, females, site: all sites, lesion: malignant lymphoma, lymphocytic type, study length 105 weeks): 151 mg/kg/day | TD50 (mouse, strain B6C3F1, females, site: any site (literature study), lesion: several types, types named in the paper, study length 105 weeks): 23.4 mg/kg/day | TD50 (mouse, strain B6C3F1, females, site: liver, lesion: hepatocellular adenoma + hepatocellular carcinoma + neoplastic nodule, study length 105 weeks): 20.3 mg/kg/day | TD50 (mouse, strain B6C3F1, females, site: liver, lesion: hepatocellular adenoma + hepatocellular carcinoma, study length 105 weeks): 20.3 mg/kg/day | TD50 (mouse, strain B6C3F1, females, site: liver, lesion: hepatocellular adenoma, study length 105 weeks): 35.9 mg/kg/day | TD50 (mouse, strain B6C3F1, females, site: liver, lesion: hepatocellular carcinoma, study length 105 weeks): 32.3 mg/kg/day | TD50 (mouse, strain B6C3F1, females, site: lung, lesion: alveolar/bronchiolar adenoma + alveolar/bronchiolar carcinoma, study length 105 weeks): 302 mg/kg/day | TD50 (mouse, strain B6C3F1, females, site: lung, lesion: alveolar/bronchiolar adenoma, study length 105 weeks): 326 mg/kg/day | TD50 (mouse, strain B6C3F1, males, site: all sites, lesion: malignant lymphoma, mixed type, study length 104 weeks): 610 mg/kg/day | TD50 (mouse, strain B6C3F1, males, site: any site (literature study), lesion: several types, types named in the paper, study length 104 weeks): 222 mg/kg/day | TD50 (mouse, strain B6C3F1, males, site: liver, lesion: hepatocellular adenoma + hepatocellular carcinoma + neoplastic nodule, study length 104 weeks): 116 mg/kg/day | TD50 (mouse, strain B6C3F1, males, site: liver, lesion: hepatocellular adenoma + hepatocellular carcinoma, study length 104 weeks): 116 mg/kg/day | TD50 (mouse, strain B6C3F1, males, site: liver, lesion: hepatocellular carcinoma, study length 104 weeks): 127 mg/kg/day | TD50 (rat, strain Fischer 344, females, site: Zymbal's gland, lesion: carcinoma, NOS, study length 104 weeks): 190 mg/kg/day | TD50 (rat, strain Fischer 344, females, site: any site (literature study), lesion: several types, types named in the paper, study length 104 weeks): 17.8 mg/kg/day | TD50 (rat, strain Fischer 344, females, site: liver, lesion: hepatocellular adenoma + hepatocellular carcinoma + neoplastic nodule, study length 104 weeks): 189 mg/kg/day | TD50 (rat, strain Fischer 344, females, site: liver, lesion: hepatocellular carcinoma + neoplastic nodule, study length 104 weeks): 189 mg/kg/day | TD50 (rat, strain Fischer 344, females, site: mammary gland, lesion: adenocarcinoma, NOS + adenoma, NOS + fibroadenoma, study length 104 weeks): 25.4 mg/kg/day | TD50 (rat, strain Fischer 344, females, site: mammary gland, lesion: adenocarcinoma, NOS + adenoma, NOS, study length 104 weeks): 156 mg/kg/day | TD50 (rat, strain Fischer 344, females, site: mammary gland, lesion: adenocarcinoma, NOS, study length 104 weeks): 232 mg/kg/day | TD50 (rat, strain Fischer 344, females, site: mammary gland, lesion: fibroadenoma, study length 104 weeks): 27.9 mg/kg/day | TD50 (rat, strain Fischer 344, females, site: subcutaneous tissue + thyroid gland + Zymbal's gland, lesion: fibroma + follicular-cell adenoma + follicular-cell carcinoma + carcinoma, NOS, study length 104 weeks): 32.2 mg/kg/day | TD50 (rat, strain Fischer 344, females, site: subcutaneous tissue, lesion: fibroma, study length 104 weeks): 44.5 mg/kg/day | TD50 (rat, strain Fischer 344, females, site: subcutaneous tissue, lesion: fibrosarcoma + fibroma + sarcoma, NOS, study length 104 weeks): 40.9 mg/kg/day | TD50 (rat, strain Fischer 344, females, site: subcutaneous tissue, lesion: fibrosarcoma + fibroma, study length 104 weeks): 42.8 mg/kg/day | TD50 (rat, strain Fischer 344, females, site: thyroid gland, lesion: follicular-cell adenoma + follicular-cell carcinoma, study length 104 weeks): 154 mg/kg/day | TD50 (rat, strain Fischer 344, females, site: thyroid gland, lesion: follicular-cell adenoma, study length 104 weeks): 318 mg/kg/day | TD50 (rat, strain Fischer 344, females, site: uterus, lesion: endometrial stromal sarcoma, study length 104 weeks): 133 mg/kg/day | TD50 (rat, strain Fischer 344, males, site: Zymbal's gland, lesion: carcinoma, NOS, study length 104 weeks): 124 mg/kg/day | TD50 (rat, strain Fischer 344, males, site: any site (literature study), lesion: several types, types named in the paper, study length 104 weeks): 15.7 mg/kg/day | TD50 (rat, strain Fischer 344, males, site: body cavities + multiple sites + multiple organs + tunica vaginalis, lesion: mesothelioma, NOS + mesothelioma, malignant, study length 104 weeks): 184 mg/kg/day | TD50 (rat, strain Fischer 344, males, site: liver + skin + subcutaneous tissue + thyroid gland + Zymbal's gland, lesion: hepatocellular carcinoma + sebaceous adenoma + squamous-cell carcinoma + trichoepithelioma + fibroma + follicular-cell adenoma + fol, study length 104 weeks): 21.2 mg/kg/day | TD50 (rat, strain Fischer 344, males, site: liver, lesion: bile duct adenoma + bile duct carcinoma, study length 104 weeks): 557 mg/kg/day | TD50 (rat, strain Fischer 344, males, site: liver, lesion: hepatocellular adenoma + hepatocellular carcinoma + neoplastic nodule, study length 104 weeks): 41.5 mg/kg/day | TD50 (rat, strain Fischer 344, males, site: liver, lesion: hepatocellular carcinoma + neoplastic nodule, study length 104 weeks): 41.5 mg/kg/day | TD50 (rat, strain Fischer 344, males, site: liver, lesion: hepatocellular carcinoma, study length 104 weeks): 140 mg/kg/day | TD50 (rat, strain Fischer 344, males, site: liver, lesion: neoplastic nodule, study length 104 weeks): 62.2 mg/kg/day | TD50 (rat, strain Fischer 344, males, site: lung, lesion: alveolar/bronchiolar adenoma + alveolar/bronchiolar carcinoma, study length 104 weeks): 254 mg/kg/day | TD50 (rat, strain Fischer 344, males, site: lung, lesion: alveolar/bronchiolar adenoma, study length 104 weeks): 281 mg/kg/day | TD50 (rat, strain Fischer 344, males, site: pancreatic islets, lesion: islet-cell adenoma + islet-cell carcinoma, study length 104 weeks): 152 mg/kg/day | TD50 (rat, strain Fischer 344, males, site: pancreatic islets, lesion: islet-cell carcinoma, study length 104 weeks): 252 mg/kg/day | TD50 (rat, strain Fischer 344, males, site: skin, lesion: basal-cell carcinoma, study length 104 weeks): 385 mg/kg/day | TD50 (rat, strain Fischer 344, males, site: skin, lesion: sebaceous adenoma, study length 104 weeks): 424 mg/kg/day | TD50 (rat, strain Fischer 344, males, site: skin, lesion: squamous-cell carcinoma + squamous-cell papilloma, study length 104 weeks): 93.8 mg/kg/day | TD50 (rat, strain Fischer 344, males, site: skin, lesion: squamous-cell carcinoma, study length 104 weeks): 130 mg/kg/day | TD50 (rat, strain Fischer 344, males, site: skin, lesion: trichoepithelioma, study length 104 weeks): 221 mg/kg/day | TD50 (rat, strain Fischer 344, males, site: subcutaneous tissue, lesion: fibroma, study length 104 weeks): 35.3 mg/kg/day | TD50 (rat, strain Fischer 344, males, site: subcutaneous tissue, lesion: fibrosarcoma + fibroma + sarcoma, NOS, study length 104 weeks): 33.4 mg/kg/day | TD50 (rat, strain Fischer 344, males, site: subcutaneous tissue, lesion: fibrosarcoma + fibroma, study length 104 weeks): 33 mg/kg/day | TD50 (rat, strain Fischer 344, males, site: testis, lesion: interstitial-cell tumor, study length 104 weeks): 15.6 mg/kg/day | TD50 (rat, strain Fischer 344, males, site: thyroid gland, lesion: follicular-cell adenoma + follicular-cell carcinoma, study length 104 weeks): 57 mg/kg/day | TD50 (rat, strain Fischer 344, males, site: thyroid gland, lesion: follicular-cell adenoma, study length 104 weeks): 176 mg/kg/day | TD50 (rat, strain Fischer 344, males, site: thyroid gland, lesion: follicular-cell carcinoma, study length 104 weeks): 73.9 mg/kg/day | carcinogen call (rat, strain Sprague-Dawley, females, site: any site (literature study), lesion: several types, types named in the paper, dosed 127 weeks, study length 127 weeks): negative (inactive) | carcinogen call (rat, strain Sprague-Dawley, males, site: any site (literature study), lesion: several types, types named in the paper, dosed 124 weeks, study length 124 weeks): negative (inactive)
